Measurements from article PMC5007552, “The hVps34‐SGK3 pathway alleviates sustained PI3K/Akt inhibition by stimulating mTORC1 and tumour growth” (The EMBO Journal, 2016).
Where “and” joins values, the source holds several entries; their conditions need not be identical. Identical values can stand only once.

System: ZR-75-1 cells
Test: NanoString human kinome mRNA quantification
Assay type: cell-based
Excerpt: Human mRNAs were hybridised to NanoString human kinome and control code sets, then subjected to quantification using NanoString software. […] To permit data compaction, and simple kinome‐wide comparisons, the fold changes are log2 transformed. […] Cell pellets were resuspended at a concentration of ~6,500 cells/μl in RLT buffer (Qiagen). […] For total copy numbers, triplicate normalised count values were averaged, and to calculate fold induction, means were divided by triplicate mean values from matched DMSO controls. P‐values were calculated using unpaired t‐test (GraphPad Prism software) by employing treated and control count data for each kinase mRNA.

NC1(c2ccc(-c3nc4ccn5c(=O)[nH]nc5c4cc3-c3ccccc3)cc2)CCC1 [MK-2206]
Normalised counts (EGFR mRNA, single replicates): 75.1 and 79.82 and 79.29 | Average normalised counts (EIF2AK1 mRNA): 3890.11 | Normalised counts (EIF2AK1 mRNA, single replicates): 3762.77 and 3749.38 and 4158.18 | Average normalised counts (EIF2AK2 mRNA): 387.137 | Normalised counts (EIF2AK2 mRNA, single replicates): 351.43 and 373.45 and 436.53 | Average normalised counts (EIF2AK3 mRNA): 167.45 | Normalised counts (EIF2AK3 mRNA, single replicates): 158.73 and 166.69 and 176.93 | Average normalised counts (EIF2AK4 mRNA): 999.56 | Normalised counts (EIF2AK4 mRNA, single replicates): 986.79 and 999.81 and 1012.08 | Average normalised counts (EPHA1 mRNA): 298.103 | Normalised counts (EPHA1 mRNA, single replicates): 293.25 and 307.43 and 293.63 | Average normalised counts (EPHA2 mRNA): 98.1433 | Normalised counts (EPHA2 mRNA, single replicates): 101.46 and 85.9 and 107.07 | Average normalised counts (EPHA3 mRNA): 1 | Normalised counts (EPHA3 mRNA, single replicates): 1 | Average normalised counts (EPHA4 mRNA): 54.0467 | Normalised counts (EPHA4 mRNA, single replicates): 47.83 and 66.78 and 47.53 | Average normalised counts (EPHA5 mRNA): 2.657 | Normalised counts (EPHA5 mRNA, single replicates): 2.39 and 2.5 and 3.08 | Average normalised counts (EPHA6 mRNA): 46.39 | Normalised counts (EPHA6 mRNA, single replicates): 39.65 and 42.46 and 57.06 | Average normalised counts (EPHA7 mRNA): 9.993 | Normalised counts (EPHA7 mRNA, single replicates): 14.2 and 10.32 and 5.46 | Average normalised counts (EPHA8 mRNA): 2.44 | Normalised counts (EPHA8 mRNA, single replicates): 4.2 and 1.63 and 1.49 | Average normalised counts (EPHA10 mRNA): 29.9233 | Normalised counts (EPHA10 mRNA, single replicates): 36.93 and 25.95 and 26.89 | Average normalised counts (EPHB1 mRNA): 2.73 | Normalised counts (EPHB1 mRNA, single replicates): 4.2 and 2.5 | Average normalised counts (EPHB2 mRNA): 16.0233 | Average normalised counts (EPHB3 mRNA): 206.547 | Average normalised counts (EPHB4 mRNA): 1166.85 | Average normalised counts (EPHB6 mRNA): 2.217 | Average normalised counts (ERBB2 mRNA): 3923.04 | Average normalised counts (ERBB3 mRNA): 1260.11 | Average normalised counts (ERBB4 mRNA): 408.193 | Average normalised counts (ERN1 mRNA): 386.247 | Average normalised counts (ERN2 mRNA): 2.483 | Average normalised counts (FASTK mRNA): 67.2133 | Average normalised counts (FASTKD1 mRNA): 614.733 | Average normalised counts (FASTKD2 mRNA): 563.933 | Average normalised counts (FASTKD3 mRNA): 173.083 | Average normalised counts (FASTKD5 mRNA): 437.597 | Average normalised counts (FER mRNA): 455.723 | Average normalised counts (FES mRNA): 1.427 | Average normalised counts (FGFR1 mRNA): 1112.53 | Average normalised counts (FGFR2 mRNA): 189.803 | Average normalised counts (FGFR3 mRNA): 1392.79 | Average normalised counts (FGFR4 mRNA): 1462.07 | Average normalised counts (FGFRL1 mRNA): 1225.18 | Average normalised counts (FGR mRNA): 1 | Average normalised counts FLJ25006 (FLJ25006 mRNA, average of 3 replicates): 106.973 | Normalised counts FLJ25006 (FLJ25006 mRNA, single replicates): 105.1 and 102.4 and 113.42 | Average normalised counts FLT1 (FLT1 mRNA, average of 3 replicates): 1 | Normalised counts FLT1 (FLT1 mRNA, single replicates): 1 | Average normalised counts FLT3 (FLT3 mRNA, average of 3 replicates): 149.337 | Normalised counts FLT3 (FLT3 mRNA, single replicates): 146.91 and 161.48 and 139.62 | Average normalised counts FLT4 (FLT4 mRNA, average of 3 replicates): 1.957 | Normalised counts FLT4 (FLT4 mRNA, single replicates): 1 (2×) and 3.87 | Average normalised counts FRK (FRK mRNA, average of 3 replicates): 160.35 | Normalised counts FRK (FRK mRNA, single replicates): 165.09 and 158.87 and 157.09 | Average normalised counts FYN (FYN mRNA, average of 3 replicates): 5.563 | Normalised counts FYN (FYN mRNA, single replicates): 5.11 and 7.71 and 3.87 | Average normalised counts GAK (GAK mRNA, average of 3 replicates): 673.637 | Normalised counts GAK (GAK mRNA, single replicates): 641.39 and 690.54 and 688.98 | Average normalised counts GRK1 (GRK1 mRNA, average of 3 replicates): 10.12 | Normalised counts GRK1 (GRK1 mRNA, single replicates): 8.75 and 4.24 and 17.37 | Average normalised counts GRK4 (GRK4 mRNA, average of 3 replicates): 59.8967 | Normalised counts GRK4 (GRK4 mRNA, single replicates): 59.65 and 50.28 and 69.76 | Normalised counts GRK5 (GRK5 mRNA, single replicates): 18.75 and 22.48 and 22.13 | Average normalised counts GRK7 (GRK7 mRNA, average of 3 replicates): 1.957 | Normalised counts GRK7 (GRK7 mRNA, single replicates): 1 (2×) and 3.87 | Average normalised counts GSG2 (GSG2 mRNA, average of 3 replicates): 390.143 | Normalised counts GSG2 (GSG2 mRNA, single replicates): 395.97 and 394.3 and 380.16 | Average normalised counts GSK3A (GSK3A mRNA, average of 3 replicates): 3191.73 | Normalised counts GSK3A (GSK3A mRNA, single replicates): 3156.49 and 3192.52 and 3226.18 | Average normalised counts GSK3B (GSK3B mRNA, average of 3 replicates): 4035 | Normalised counts GSK3B (GSK3B mRNA, single replicates): 3944.57 and 4049.09 and 4111.34 | Average normalised counts GUCY2C (GUCY2C mRNA, average of 3 replicates): 1 | Normalised counts GUCY2C (GUCY2C mRNA, single replicates): 1 | Average normalised counts GUCY2D (GUCY2D mRNA, average of 3 replicates): 5.627 | Normalised counts GUCY2D (GUCY2D mRNA, single replicates): 6.02 and 8.58 and 2.28 | Average normalised counts GUCY2F (GUCY2F mRNA, average of 3 replicates): 1.693 | Normalised counts GUCY2F (GUCY2F mRNA, single replicates): 1 (2×) and 3.08 | Average normalised counts HCK (HCK mRNA, average of 3 replicates): 1.533 | Normalised counts HCK (HCK mRNA, single replicates): 1.48 and 1.63 and 1.49 | Average normalised counts HIPK1 (HIPK1 mRNA, average of 3 replicates): 582.127
